Test results taken from PubChem BioAssay AID248 (DTP/NCI, 2004).
“And” between values parts separate entries of the source, which are not always exact repeats. Equal entries are not always repeated. Inconclusive results and toxic doses are left out. Cut-off read from the data, not from the text of the source: active = T/C of 150% or more; inactive = T/C below 125%.

Tested on: L1210 leukemia ip in BDF1 mice, survival T/C
Experiment: NCI In Vivo Anticancer Drug Screen. Data for tumor model L1210 Leukemia (intraperitoneal) in B6D2F1 (BDF1) mice
Details: endpoint: mean survival time, higher = longer survival
In short: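 Transplanted-tumor mice were given test agent; controls received vehicle only. Survival readings from the two groups were divided (treated over control).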

[1] = dose: 75.0 mg/kg/injection, schedule: Q01DX001 (ip), vehicle: saline
[2] = dose: 150.0 mg/kg/injection, schedule: Q01DX001 (ip), vehicle: saline
[3] = dose: 100.0 mg/kg/injection, schedule: Q04DX002 (ip), vehicle: Klucel (hydroxypropylcellulose) (HPC)
[4] = dose: 200.0 mg/kg/injection, schedule: Q04DX002 (ip), vehicle: Klucel (hydroxypropylcellulose) (HPC)
[5] = dose: 400.0 mg/kg/injection, schedule: Q04DX002 (ip), vehicle: Klucel (hydroxypropylcellulose) (HPC)
[6] = dose: 100.0 mg/kg/injection, schedule: Q01DX001 (ip), vehicle: saline
[7] = dose: 200.0 mg/kg/injection, schedule: Q01DX001 (ip), vehicle: saline
[8] = dose: 200.0 mg/kg/injection, schedule: Q04DX003 (ip), vehicle: saline with Tween-80
[9] = dose: 100.0 mg/kg/injection, schedule: Q04DX003 (ip), vehicle: saline with Tween-80
[10] = dose: 400.0 mg/kg/injection, schedule: Q04DX003 (ip), vehicle: saline with Tween-80
[11] = dose: 400.0 mg/kg/injection, schedule: Q01DX001 (ip), vehicle: saline
[12] = dose: 100.0 mg/kg/injection, schedule: Q01DX009 (ip), vehicle: Klucel (hydroxypropylcellulose) (HPC)
[13] = dose: 200.0 mg/kg/injection, schedule: Q01DX009 (ip), vehicle: Klucel (hydroxypropylcellulose) (HPC)
[14] = dose: 200.0 mg/kg/injection, schedule: Q04DX003 (ip), vehicle: Klucel (hydroxypropylcellulose) (HPC)
[15] = dose: 400.0 mg/kg/injection, schedule: Q01DX009 (ip), vehicle: Klucel (hydroxypropylcellulose) (HPC)
[16] = dose: 400.0 mg/kg/injection, schedule: Q04DX003 (ip), vehicle: Klucel (hydroxypropylcellulose) (HPC)
[17] = dose: 100.0 mg/kg/injection, schedule: Q04DX003 (ip), vehicle: saline
[18] = dose: 100.0 mg/kg/injection, schedule: Q01DX001 (ip), vehicle: carboxymethylcellulose (CMC)
[19] = dose: 200.0 mg/kg/injection, schedule: Q01DX001 (ip), vehicle: carboxymethylcellulose (CMC)
[20] = dose: 400.0 mg/kg/injection, schedule: Q01DX001 (ip), vehicle: carboxymethylcellulose (CMC)
[21] = dose: 100.0 mg/kg/injection, schedule: Q01DX009 (ip), vehicle: saline with Tween-80
[22] = dose: 200.0 mg/kg/injection, schedule: Q01DX009 (ip), vehicle: saline with Tween-80
[23] = dose: 400.0 mg/kg/injection, schedule: Q01DX009 (ip), vehicle: saline with Tween-80
[24] = dose: 100.0 mg/kg/injection, schedule: Q04DX003 (ip), vehicle: Klucel (hydroxypropylcellulose) (HPC)
[25] = dose: 100.0 mg/kg/injection, schedule: Q01DX001 (ip), vehicle: saline with Tween-80
[26] = dose: 200.0 mg/kg/injection, schedule: Q01DX001 (ip), vehicle: saline with Tween-80
[27] = dose: 400.0 mg/kg/injection, schedule: Q01DX001 (ip), vehicle: saline with Tween-80

Measured: T/C

C=CCCC1(CC=C)C(=O)NC(=O)NC1=O
inactive: [1] 100 % of control | [2] 104 % of control

O=C1Nc2ccccc2C2=C3CCCCC3=NNC12 (stereo unspecified)
inactive: [3] 101 % of control | [4] 97 % of control | [5] 108 % of control

CCCCC(=O)N/N=C/c1ccccc1OC
inactive: [6] 102 % of control | [7] 104 % of control

COc1c2ccc(-c3ccccc3)oc-2cc(=O)c1C
inactive: [3] 104 % of control | [4] 96 % of control | [5] 93 % of control

COc1ccc2c(c1)CNC1c3cc(OC)c(O)cc3CC21 (stereo unspecified)
inactive: [8] 88 % of control

CC(C)(Br)C(=O)c1ccc(Cl)s1
inactive: [9] 96 % of control | [8] 107 % of control | [10] 105 % of control

O=[N+]([O-])c1ccc(Oc2c(Cl)c(Cl)c(Cl)c(Cl)c2Cl)c([N+](=O)[O-])c1
inactive: dose: 222.0 mg/kg/injection, schedule: Q01DX Z (ip), vehicle: methylcellulose (MC) 95 % of control | dose: 333.0 mg/kg/injection, schedule: Q01DX Z (ip), vehicle: methylcellulose (MC) 94 % of control | dose: 500.0 mg/kg/injection, schedule: Q01DX Z (ip), vehicle: methylcellulose (MC) 93 % of control

CCCCCCC(C(=O)OCC)P(=O)(OCC)OCC (stereo unspecified)
inactive: [1] 101 % of control | [2] 94 % of control | dose: 300.0 mg/kg/injection, schedule: Q01DX001 (ip), vehicle: saline 100 % of control

CC(C)C(C)(C)NC(N)=O
inactive: [6] 102 % of control | [7] 104 % of control | [11] 104 % of control

CC1CC2C(CC1=O)C(C)(C)CCC2(C)C (stereo unspecified)
inactive: [12] 92 % of control | [13] 94 % of control | [14] 107 % of control | [15] 90 % of control | [16] 91 % of control

NC(CCC(=O)Nc1cccc2ccccc12)C(=O)O (stereo unspecified)
inactive: [9] 105 % of control | [8] 100 % of control | [10] 106 % of control

[Cl][Pt+2][Cl].[NH-]CCN1CC1
inactive: dose: 50.0 mg/kg/injection, schedule: Q04DX003 (ip), vehicle: saline 122 % of control | [17] 122 % of control

Nc1[nH]c(=S)ncc1-c1cccc(Cl)c1
inactive: dose: 50.0 mg/kg/injection, schedule: Q01DX001 (ip), vehicle: Klucel (hydroxypropylcellulose) (HPC) 110 % of control | dose: 100.0 mg/kg/injection, schedule: Q01DX001 (ip), vehicle: Klucel (hydroxypropylcellulose) (HPC) 117 % of control | dose: 200.0 mg/kg/injection, schedule: Q01DX001 (ip), vehicle: Klucel (hydroxypropylcellulose) (HPC) 114 % of control

O=C(O)COc1c(Br)cc(F)cc1Br
inactive: dose: 100.0 mg/kg/injection, schedule: Q04DX002 (ip), vehicle: other 103 % of control | dose: 200.0 mg/kg/injection, schedule: Q04DX002 (ip), vehicle: other 109 % of control and 90 % of control | dose: 400.0 mg/kg/injection, schedule: Q04DX002 (ip), vehicle: other 100 % of control and 86 % of control

O=[N+]([O-])c1cc(N(c2ccccc2)c2ccccc2)c(Cl)cc1Cl
inactive: [18] 111 % of control | [19] 103 % of control | [20] 95 % of control

C=CCc1ccc(OC(=O)Nc2ccc(C(=O)OCC)cc2)c(OC)c1
inactive: [12] 90 % of control | [13] 90 % of control

CCCNC(=O)Nc1cccc(C(F)(F)F)c1
inactive: [21] 100 % of control | [9] 100 % of control | [22] 97 % of control | [8] 97 % of control | [23] 88 % of control | [10] 106 % of control

O=C(NC(=S)Nc1ccc(F)cc1)c1cccc2ccccc12
inactive: [12] 96 % of control | [24] 104 % of control | [13] 91 % of control | [14] 100 % of control | [15] 101 % of control | [16] 97 % of control

CCCCCCC(C)C1CCCCC1 (stereo unspecified)
inactive: [25] 96 % of control | [26] 93 % of control | [27] 93 % of control

CCCCCCCNC(=O)Nc1ccc(Cl)c(Cl)c1
inactive: [6] 95 % of control | [7] 90 % of control | [11] 97 % of control

O=S(=O)(c1ccccc1)C1CCCC1Cl (stereo unspecified)
inactive: [6] 104 % of control | [7] 96 % of control | [11] 100 % of control

CS(=O)(=O)Oc1ccc2c(c1)CCC2
inactive: [18] 104 % of control | [19] 101 % of control | [20] 95 % of control

C1=CC2CC1CC2/C=N\N=C\C1CC2C=CC1C2 (stereo unspecified)
inactive: [3] 118 % of control | [4] 121 % of control

CCOC(=O)c1ccc(NC(=O)Oc2ccccc2C(=O)OC)cc1
inactive: [12] 96 % of control | [13] 97 % of control | [15] 93 % of control

C=C(C)COc1cc(C=NCCCC)c(C)cc1C
inactive: [9] 96 % of control | [8] 102 % of control | [10] 96 % of control

N/C=N/O
active: dose: 400.0 mg/kg/injection, schedule: Q01DX009 (ip), vehicle: saline 158 % of control
inactive: dose: 12.5 mg/kg/injection, schedule: Q01DX009 (ip), vehicle: saline 105 % of control | dose: 25.0 mg/kg/injection, schedule: Q01DX009 (ip), vehicle: saline 105 % of control | dose: 50.0 mg/kg/injection, schedule: Q01DX009 (ip), vehicle: saline 111 % of control | dose: 100.0 mg/kg/injection, schedule: Q01DX009 (ip), vehicle: saline 111 % of control | [17] 101 % of control | dose: 200.0 mg/kg/injection, schedule: Q01DX009 (ip), vehicle: saline 121 % of control | dose: 200.0 mg/kg/injection, schedule: Q04DX003 (ip), vehicle: saline 111 % of control | dose: 400.0 mg/kg/injection, schedule: Q04DX003 (ip), vehicle: saline 97 % of control

COC(=O)/C=C/N1C(=O)c2ccccc2C1=O
inactive: [12] 96 % of control | [24] 102 % of control | [13] 98 % of control | [14] 92 % of control | [15] 98 % of control | [16] 96 % of control

CCN(c1ccccc1)c1ccc([N+](=O)[O-])cc1[N+](=O)[O-]
inactive: [18] 107 % of control | [19] 91 % of control | [20] 100 % of control

O=C(O)c1cc(Br)cc(I)c1I
inactive: dose: 100.0 mg/kg/injection, schedule: Q04DX002 (ip), vehicle: saline with Tween-80 105 % of control | dose: 200.0 mg/kg/injection, schedule: Q04DX002 (ip), vehicle: saline with Tween-80 105 % of control | dose: 400.0 mg/kg/injection, schedule: Q04DX002 (ip), vehicle: saline with Tween-80 110 % of control

NC(N)=N/N=C/c1cc(Br)ccc1O
inactive: [1] 102 % of control | [2] 98 % of control

FC(F)(F)c1nc2nc(Cl)c(Cl)nc2n1CCCN1CCOCC1
inactive: [21] 117 % of control | [22] 107 % of control | [23] 103 % of control

COc1ccccc1NC(=O)CC(=O)c1ccc([N+](=O)[O-])cc1
inactive: dose: 100.0 mg/kg/injection, schedule: Q01DX009 (ip), vehicle: saline sonified 103 % of control | [24] 101 % of control | dose: 200.0 mg/kg/injection, schedule: Q01DX009 (ip), vehicle: saline sonified 100 % of control | [14] 105 % of control | dose: 400.0 mg/kg/injection, schedule: Q01DX009 (ip), vehicle: saline sonified 103 % of control | [16] 98 % of control

O=C(N/N=C\c1ccccc1Cl)c1ccco1
inactive: [18] 92 % of control | [19] 86 % of control

Cc1cccc(NC(=O)CSc2cc(Cl)c(Cl)cc2Cl)c1
inactive: [25] 93 % of control | [26] 90 % of control | [27] 87 % of control

CN(C)c1ccc2c(c1)Cc1cc(NC(N)=O)ccc1-2
inactive: [18] 115 % of control | [19] 96 % of control | [20] 91 % of control
